Activity calls are given as the source filed them. The calls are words filed in the database; no cut-off is given here.
Tests used:
[1] = target: Phospholipid hydroperoxide glutathione peroxidase GPX4 (Mus musculus) (UniProt O70325); assay: Activation of GPX4 in MEF assessed as increase in oxidized glutathione-mediated oxidation of NADPH to NADP+ using tert-butyl hydroperoxide as substrate preincubated for 5 mins followed by substrate addition measured for 6 mins by glutathione reductase enzyme coupled fluorescence assay; type: cell-based
Chain of Phospholipid hydroperoxide glutathione peroxidase GPX4 (Mus musculus) (O70325 whole entry): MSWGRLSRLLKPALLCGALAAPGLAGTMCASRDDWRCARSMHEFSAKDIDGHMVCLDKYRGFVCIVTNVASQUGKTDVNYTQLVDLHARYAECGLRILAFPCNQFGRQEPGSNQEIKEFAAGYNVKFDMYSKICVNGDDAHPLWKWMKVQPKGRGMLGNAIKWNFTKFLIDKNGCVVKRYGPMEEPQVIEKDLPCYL

[2] = Iron chelating activity assessed as compound-Fe2+ complex formation after 10 mins by Prussian blue assay
[3] = target: T1, Phospholipid hydroperoxide glutathione peroxidase GPX4 (Homo sapiens) (UniProt P36969); assay: Activation of GPX4 in A23187-stimulated human PMN leukocytes assessed as increase in 5-HETE/LTB4 ratio preincubated for 15 mins followed by A23187 addition and measured after 120 mins by LC-MS analysis
T1 sequence (whole entry): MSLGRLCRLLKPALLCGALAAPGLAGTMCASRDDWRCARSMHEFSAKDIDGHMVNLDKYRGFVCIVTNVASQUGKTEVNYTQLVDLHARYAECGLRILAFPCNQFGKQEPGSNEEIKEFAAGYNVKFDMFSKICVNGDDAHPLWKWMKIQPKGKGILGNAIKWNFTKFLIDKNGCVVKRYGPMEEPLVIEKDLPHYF

[4] = Binding affinity to recombinant His-tagged human cytosolic GPX4 U46C mutant expressed in Escherichia coli M15 by SPR analysis
[5] = target: T2, Polyunsaturated fatty acid lipoxygenase ALOX15 (Homo sapiens) (UniProt P16050); assay: Inhibition of 15-LOX (unknown origin) at 500 uM preincubated for 1 mins followed by arachidonic acid substrate addition by spectrophotometric method
T2 sequence (whole entry): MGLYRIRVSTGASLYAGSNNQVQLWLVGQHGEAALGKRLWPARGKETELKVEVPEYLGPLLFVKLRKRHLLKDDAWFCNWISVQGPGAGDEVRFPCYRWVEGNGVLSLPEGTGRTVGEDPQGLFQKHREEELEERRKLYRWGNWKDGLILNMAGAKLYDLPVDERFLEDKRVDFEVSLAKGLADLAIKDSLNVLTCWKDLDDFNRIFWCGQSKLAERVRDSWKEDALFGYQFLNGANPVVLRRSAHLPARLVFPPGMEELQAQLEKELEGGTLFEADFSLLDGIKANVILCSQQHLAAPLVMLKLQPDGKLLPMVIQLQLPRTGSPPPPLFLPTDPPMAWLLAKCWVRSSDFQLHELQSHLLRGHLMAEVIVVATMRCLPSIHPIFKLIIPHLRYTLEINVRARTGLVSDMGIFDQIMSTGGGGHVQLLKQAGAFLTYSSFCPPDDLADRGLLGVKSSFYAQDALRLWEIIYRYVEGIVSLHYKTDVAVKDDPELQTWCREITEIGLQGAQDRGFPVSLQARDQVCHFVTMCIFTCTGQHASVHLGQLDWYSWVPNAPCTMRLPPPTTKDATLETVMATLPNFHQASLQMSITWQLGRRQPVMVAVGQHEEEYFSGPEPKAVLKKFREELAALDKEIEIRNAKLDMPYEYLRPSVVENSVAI

[6] = target: Phospholipid hydroperoxide glutathione peroxidase GPX4 (Mus musculus) (UniProt O70325); assay: Activation of GPX4 in MEF assessed as increase in […] protection against CHOOH-induced cell death at 200 uM; type: cell-based
Homo sapiens [7] = species: Homo sapiens; assay: (§1) Activation of recombinant His-tagged human cytosolic GPX4 U46C mutant expressed in Escherichia coli M15 assessed as increase in oxidized glutathione-mediated oxidation of NADPH to NADP+ at 200 uM using tert-butyl hydroperoxide as substrate preincubated for 5 mins followed by substrate addition measured for 6 mins by glutathione reductase enzyme coupled fluorescence assay relative to control
[8] = target: T1, Phospholipid hydroperoxide glutathione peroxidase GPX4 (Homo sapiens); assay: Activation of GPX4 in human HT1080 cells assessed as inhibition of erastin-induced ferroptosis at 125 uM preincubated for 30 mins followed by erastin addition measured after 24 hrs by MTS assay; type: cell-based
Homo sapiens [9] = species: Homo sapiens; assay: as §1, with “0.4 to 250” for “200”
[10] = target: T3, Polyunsaturated fatty acid 5-lipoxygenase (Homo sapiens) (UniProt P09917); assay: Inhibition of human 5-LOX at 500 uM preincubated for 10 mins followed by arachidonic acid substrate addition in presence of H2DCFDA by spectrophotometric method
T3 sequence (whole entry): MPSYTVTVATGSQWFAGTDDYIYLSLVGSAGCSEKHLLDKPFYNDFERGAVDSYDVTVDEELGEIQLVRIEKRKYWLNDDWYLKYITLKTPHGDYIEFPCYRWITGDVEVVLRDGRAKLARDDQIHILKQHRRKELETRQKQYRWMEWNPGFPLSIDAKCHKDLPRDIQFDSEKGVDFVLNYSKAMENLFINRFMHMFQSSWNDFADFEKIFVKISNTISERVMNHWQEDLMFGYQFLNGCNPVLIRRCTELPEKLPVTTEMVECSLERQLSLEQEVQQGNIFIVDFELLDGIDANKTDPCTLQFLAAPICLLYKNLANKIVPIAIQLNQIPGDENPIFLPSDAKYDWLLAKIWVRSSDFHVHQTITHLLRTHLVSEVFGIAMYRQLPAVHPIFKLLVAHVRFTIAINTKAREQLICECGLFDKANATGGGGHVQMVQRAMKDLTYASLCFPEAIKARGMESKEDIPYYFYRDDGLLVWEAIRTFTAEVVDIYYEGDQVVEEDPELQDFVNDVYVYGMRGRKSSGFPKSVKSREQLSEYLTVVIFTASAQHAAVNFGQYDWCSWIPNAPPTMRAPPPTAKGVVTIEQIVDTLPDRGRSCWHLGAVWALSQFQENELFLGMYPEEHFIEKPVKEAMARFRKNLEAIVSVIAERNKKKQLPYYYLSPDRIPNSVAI

[11] = target: T1, Phospholipid hydroperoxide glutathione peroxidase GPX4 (Homo sapiens); assay: Activation of GPX4 (unknown origin) expressed in HEK293T cells harboring luc2P/NF-kBRE/Hygro plasmid assessed as inhibition of TNFalpha-stimulated NFkB activation preincubated for 30 mins followed by TNFalpha addition and measured after 6 hrs by luciferase reporter gene assay; type: cell-based

Compound: NS(=O)(=O)c1ccc(NC(S)=NCc2ccc(Cl)cc2)cc1
- Activity [1]: Dose-dependent effect
- Activity [2]: inactive
- Activity [3]: Dose-dependent effect
- Kd [4]: 63 µM
- inhibition [5]: inactive
- Activity [6]: Active
- Activity (Homo sapiens [7]): 127%
- inhibition [8]: Active
- Emax (Homo sapiens [9]): 263%
- inhibition [10]: inactive
- inhibition [11]: Dose-dependent effect

Source: ChEMBL document CHEMBL4308834, “Novel Allosteric Activators for Ferroptosis Regulator Glutathione Peroxidase 4” (J Med Chem, 2018)
